From article PMC10503797, “Allosteric modulator potentiates β2AR agonist–promoted bronchoprotection in asthma models” (The Journal of Clinical Investigation, 2023)
Values after ≈ are worked out from the molar mass of the structure shown. Values joined by “and” are separate entries in the source; they are usually repeats but may differ in a detail not shown here. Equal values may be shown once.

How the values were obtained:
guinea pig β2AR = guinea pig β2AR (Cavia porcellus, UniProt Q8K4Z4); assay: 125I-CYP radioligand competition binding, guinea pig β2AR; settings: Cmpd-6 [25 uM]
[1] = Solubility by formation of precipitates under the microscope; type: physicochemical
Procedure: *Solubility was determined by formation of precipitates observed under the microscope. **Cell […]
binds an intracellular region of the β2AR. ***Log P, Log of the Partition coefficient that was calculated using ChemDraw Professional (version 22.2, PerkinElmer). DMSO, dimethyl […]
(1 picture or pasted object on this page, not shown here)

[2] = test system: lung slices obtained from ovalbumin-sensitized guinea pigs; assay: Ovalbumin-induced airway constriction in lung slices from ovalbumin-sensitized guinea pigs; type: cell-based, guinea pig; parameters: key to OVA-induced airway constriction response (Figure 6): max constriction as % of initial (baseline) airway luminal area; settings: 0.1 µM Fenoterol + 25 µM Cmpd-6, Exp1-5
Description: All curve fits were generated using the software program GraphPad Prism. Data are represented as mean ± SEM of 4–5 guinea pigs (see Table 2 for statistical analyses).
Outbred, male, specified pathogen-free Dunkin Hartley guinea pigs (Charles River Laboratory) weighing 200 to 400 g were used. The animals were housed in pairs under a 12-hour light/dark cycle in a temperature- and humidity-controlled room with food and tap water ad libitum. For studies in the guinea pig model of allergic asthma, animals were actively IgE-sensitized to ovalbumin by injecting a suspension containing 100 μg/mL ovalbumin and 100 mg/mL Al(OH)3 in saline. Each animal was injected with 1.0 mL of suspension: 0.5 mL was injected i.p. and 0.5 mL was divided over 7 s.c. sites close to lymph nodes in the neck, paws, and lumbar regions ([24]). Animals were euthanized at least 4 weeks after sensitization.
Precision-cut lung slices were prepared as described previously ([61], [62]). A 3% solution of low melting-point agarose (Gerbu Biotechnik GmbH) in ultrapure water was prepared by heating it a microwave until fully dissolved. […] After filling, the lungs were covered with ice for 30 minutes to solidify the agarose for slicing. […] Lung slices were cut at a thickness of 500 μm and washed several times with slicing buffer to remove debris and washout the isoproterenol. Slices were incubated overnight in a 60 mm dish in sterile incubation buffer: MEM composed of lung slice buffer supplemented with 0.5 mM sodium pyruvate, 1 mM glutamine (Gibco), MEM-amino acids mixture (1:50), MEM-vitamins mixture (1:100; Gibco), and penicillin-streptomycin (1:100; Gibco), pH = 7.2, at 37°C in a CO2- and humidity-controlled atmosphere.
After washing the slices in medium, individual guinea pig lung slices were mechanically maintained with a Teflon ring with an inner diameter of 7 mm and covered with 1 mL of incubation buffer. […] Image acquisition software (NIS-Elements, Nikon) was used to quantify airway luminal area. Images of the airways were acquired every 2 seconds during the whole course of the experiment, starting 2 minutes before the addition of any agent to allow for baseline measurements of the airway caliber. For each methacholine or ovalbumin concentration, the maximal airway constriction was expressed as percentage of the initial (baseline) airway luminal area and plotted against that concentration.

Sequence of guinea pig β2AR (Q8K4Z4 whole entry): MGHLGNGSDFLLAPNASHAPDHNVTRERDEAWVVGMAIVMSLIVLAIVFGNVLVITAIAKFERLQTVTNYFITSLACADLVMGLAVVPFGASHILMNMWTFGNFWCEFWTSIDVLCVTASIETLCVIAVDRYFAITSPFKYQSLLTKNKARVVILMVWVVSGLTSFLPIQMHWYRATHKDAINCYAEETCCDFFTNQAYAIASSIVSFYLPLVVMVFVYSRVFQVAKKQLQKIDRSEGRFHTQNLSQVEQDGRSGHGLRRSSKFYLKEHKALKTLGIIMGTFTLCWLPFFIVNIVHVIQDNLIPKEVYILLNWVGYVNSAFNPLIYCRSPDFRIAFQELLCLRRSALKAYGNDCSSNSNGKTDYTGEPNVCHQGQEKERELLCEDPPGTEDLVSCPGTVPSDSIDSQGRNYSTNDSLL

COc1ccc(Sc2ccc(S(=O)(=O)N(C)C(C)C)cc2C(=O)N[C@H](CC(N)=O)Cc2ccc(C(C)(C)C)cc2)cc1 [Cmpd-6]
125I-CYP binding, Alb competition curve (Figure 4E) (guinea pig β2AR; Log [Alb] (M) -8.70927): 98.1238 and 100.926 and 100.115 and 99.527 | 125I-CYP binding, Alb competition curve (Figure 4E) (guinea pig β2AR; Log [Alb] (M) -9.31133): 102.128 and 99.4951 and 103.592 and 101.926 | 125I-CYP binding, Alb competition curve (Figure 4E) (guinea pig β2AR; Log [Alb] (M) -9.91339): 98.9354 and 102.792 and 101.444 and 100.327 | 125I-CYP binding, Alb competition curve (Figure 4E) (guinea pig β2AR; Log [Alb] (M) -11 (DMSO)): 100.906 and 97.7704 and 98.4446 and 97.5175 | 125I-CYP binding, FEN competition curve (Figure 4D) (guinea pig β2AR; Log [FEN] (M) -4.49485): 1.409 and 1.866 and 2.061 and 1.201 | 125I-CYP binding, FEN competition curve (Figure 4D) (guinea pig β2AR; Log [FEN] (M) -6.90309): 30.825 and 36.7624 and 55.798 and 36.3648 | 125I-CYP binding, FEN competition curve (Figure 4D) (guinea pig β2AR; Log [FEN] (M) -7.50515): 56.6182 and 66.5595 and 80.6389 and 63.8444 | 125I-CYP binding, FEN competition curve (Figure 4D) (guinea pig β2AR; Log [FEN] (M) -8.10721): 85.2358 and 86.7408 and 95.8272 and 89.5788 | 125I-CYP binding, FEN competition curve (Figure 4D) (guinea pig β2AR; Log [FEN] (M) -8.70927): 93.1548 and 97.3369 and 100.273 and 95.4081 | 125I-CYP binding, FEN competition curve (Figure 4D) (guinea pig β2AR; Log [FEN] (M) -9.31133): 99.631 and 100.281 and 99.1957 and 101.634 | 125I-CYP binding, FEN competition curve (Figure 4D) (guinea pig β2AR; Log [FEN] (M) -9.91339): 99.9681 and 102.324 and 101.127 and 101.353 | 125I-CYP binding, FEN competition curve (Figure 4D) (guinea pig β2AR; Log [FEN] (M) -11 (DMSO)): 101.956 and 98.6366 and 99.5621 and 98.3857 | 125I-CYP binding, ISO competition curve (Figure 4B) (guinea pig β2AR; Log [ISO] (M) -5.09691): 1.411 and 1.274 and 2.38 and 2.249 and 1.1946 | 125I-CYP binding, ISO competition curve (Figure 4B) (guinea pig β2AR; Log [ISO] (M) -6.90309): 12.3266 and 14.2939 and 23.2433 and 22.4081 and 20.0289 | 125I-CYP binding, ISO competition curve (Figure 4B) (guinea pig β2AR; Log [ISO] (M) -7.50515): 28.0286 and 51.334 and 48.5832 and 48.3069 and 46.746 | 125I-CYP binding, ISO competition curve (Figure 4B) (guinea pig β2AR; Log [ISO] (M) -8.70927): 84.2583 and 93.8004 and 93.7052 and 91.4625 and 91.5747 | 125I-CYP binding, ISO competition curve (Figure 4B) (guinea pig β2AR; Log [ISO] (M) -9.31133): 94.8589 and 99.2775 and 101.069 and 99.6071 and 99.1245 | 125I-CYP binding, ISO competition curve (Figure 4B) (guinea pig β2AR; Log [ISO] (M) -9.91339): 97.1607 and 99.3939 and 99.6796 and 99.8936 and 100.155 | 125I-CYP binding, ISO competition curve (Figure 4B) (guinea pig β2AR; Log [ISO] (M) -11 (DMSO)): 103.398 and 98.8874 and 98.4421 and 101.926 and 100.783 | 125I-CYP binding, Salm competition curve (Figure 4F) (guinea pig β2AR; Log [Salm] (M) -5.09691): 4.291 and 4.483 and 7.953 and 4.185 | 125I-CYP binding, Salm competition curve (Figure 4F) (guinea pig β2AR; Log [Salm] (M) -5.69897): 11.1208 and 11.4804 and 19.9536 and 11.286 | 125I-CYP binding, Salm competition curve (Figure 4F) (guinea pig β2AR; Log [Salm] (M) -6.30103): 31.3057 and 32.3004 and 47.2072 and 32.0545 | 125I-CYP binding, Salm competition curve (Figure 4F) (guinea pig β2AR; Log [Salm] (M) -6.90309): 67.1995 and 66.2422 and 79.0931 and 66.807 | 125I-CYP binding, Salm competition curve (Figure 4F) (guinea pig β2AR; Log [Salm] (M) -7.50515): 88.5873 and 88.904 and 95.0429 and 88.3948 | 125I-CYP binding, Salm competition curve (Figure 4F) (guinea pig β2AR; Log [Salm] (M) -8.10721): 97.9774 and 97.2972 and 97.374 and 97.0377 | 125I-CYP binding, Salm competition curve (Figure 4F) (guinea pig β2AR; Log [Salm] (M) -8.70927): 99.3713 and 100.399 and 100.671 and 100.779 | 125I-CYP binding, Salm competition curve (Figure 4F) (guinea pig β2AR; Log [Salm] (M) -9.31133): 100.672 and 102.486 and 99.6753 and 100.402 | 125I-CYP binding, Salm competition curve (Figure 4F) (guinea pig β2AR; Log [Salm] (M) -9.91339): 96.4457 and 99.6997 and 100.705 and 99.5228 | 125I-CYP binding, Salm competition curve (Figure 4F) (guinea pig β2AR; Log [Salm] (M) -11 (DMSO)): 100.872 and 95.2897 and 98.0192 and 98.0519 | Solubility ([1]; Aqueous): 0.032 mM (≈ 0.0196 mg/mL) | Solubility ([1]; DMSO): 100 mM (≈ 61.2 mg/mL) | OVA-induced airway constriction response (Figure 6) ([2]; [OVA] 0.001 ng/ml): 101.6 and 100.0 and 98.0 and 99.2 and 107.5 | OVA-induced airway constriction response (Figure 6) ([2]; [OVA] 0.01 ng/ml): 101.3 and 100.0 and 95.9 and 96.7 and 107.5 | OVA-induced airway constriction response (Figure 6) ([2]; [OVA] 0.1 ng/ml): 101.6 and 100.0 and 97.5 and 97.8 and 107.5 | OVA-induced airway constriction response (Figure 6) ([2]; [OVA] 1 ng/ml): 101.6 and 99.9 and 95.4 and 99.0 and 107.5 | OVA-induced airway constriction response (Figure 6) ([2]; [OVA] 10 ng/ml): 101.3 and 109.6 and 95.4 and 102.0 and 106.4 | OVA-induced airway constriction response (Figure 6) ([2]; [OVA] 100 ng/ml): 102.3 and 105.5 and 95.6 and 99.3 and 107.0 | OVA-induced airway constriction response (Figure 6) ([2]; [OVA] 1000 ng/ml): 102.2 and 108.2 and 105.1 and 101.8 | OVA-induced airway constriction response (Figure 6) ([2]; [OVA] 10000 ng/ml): 101.8 and 96.8 and 105.1 and 98.0 and 79.6 | OVA-induced airway constriction response (Figure 6) ([2]; [OVA] 100000 ng/ml): 101.6 and 81.6 and 100.1 and 89.5 and 64.4 | OVA-induced airway constriction response (Figure 6) ([2]; [OVA] 1000000 ng/ml): 101.0 and 77.3 and 94.7 and 90.3 and 74.1
